We go through 6 compounds from paper PMC9252919, “Controlled masking and targeted release of redox-cycling ortho-quinones via a C–C bond-cleaving 1,6-elimination” (Nature Chemistry, 2022).

Read-outs that look alike come from different tables or passages of the source.

A short description of series [1]: Penicillin-G-amidase-mediated kinetic analysis of elimination at physiological pH (HPLC). The class given is physicochemical. The following applies: pH 7.4, 37 °C. As to the method: Stocks of 2-phenylacetyl-para-aminobenzyl ketol were made up in DMF at a concentration of 10 mM. For a reaction, 17.5 µl of ketol stock was added to 17.5 µl of a 10 mM stock of internal standard in DMF and 310 µl of PBS at pH 7.4. To initiate a reaction, 5 µl of a suspension of penicillin G amidase (PenG, Sigma-Aldrich enzyme 76427, 5–10 U mg^−1) was added. In control samples 5 µl of PBS was added in place of the enzyme. Test and control samples were then incubated at 37 °C with shaking. At the recorded time points, 20 µl aliquots of the reactions were analysed by HPLC (254 nm, ThermoFisher U3000). HPLC column: Phenomenex Kinetex C18, 5 µm, 50 × 4.6 mm, 100 Å; flow, 1 ml min^−1. Gradient and solvent system for assay with 2-phenylacetyl-PAB-PhQ 21: A = H2O, B = acetonitrile, t = 0–1 min 0% B, t = 1–10 min 0–100% B, t = 10–11 min 0% B. Gradient and solvent system for assay with 2-phenylacetyl-PAB-BL 22 and 2-phenylacetyl-PAB-DN 23: A = H2O + 0.1% formic acid, B = acetonitrile + 0.1% formic acid, t = 0–1 min 0% B, t = 1–10 min 0–40% B, t = 10–16 min 40–50% B, t = 16.1 min 100% B, t = 16.1–18 min 100% B, t = 18–20 min 0% B. Peaks were identified by LC–MS analysis and comparison with pure compounds. Values described represent peak area (mAU × min) divided by peak area of internal standard. Recorded values are averages of three independent reactions and error bars display standard errors of the mean. Fitting was performed using GraphPad Prism 8 software. Rate and half-life measurements were calculated by consumption of intermediate para-aminobenzyl ketol and formation of product quinone.

Series [2] can be described thus: 1H NMR kinetic analysis of elimination of PAB-PhQ in MeOD. The format is physicochemical. As to the method:
Kinetics of the release of PhQ 4 from PAB-PhQ 7 were monitored by ^1H NMR at 25 °C. Analysis was performed in MeOD due to poor solubility of the compound in H2O. To form the active eliminating species, Boc-PAB-PhQ 6 was dissolved in dichloromethane/trifluoroacetic acid 4:1 at 0 °C and stirred for 30 min, upon which the reaction appeared complete by TLC. Product 7 was dried in vacuo before being dissolved in MeOD. The basicity of the solution was altered by addition of triethylamine (drops). pH was estimated using pH paper. pH values are only indicative because analysis is performed in MeOD. Elimination rates were determined from the aromatic region. Kinetics were measured by monitoring the integral of one peak, normalized to the number of protons present (that is, the integral of 1H), divided by the total integral of the aromatic region (δ = 6.2–8.6 ppm, that is, the integral of 12 H). Analysis was performed using Mestrenova v.14.2.0 processing software and rate constants were calculated using GraphPad Prism v.8.0 software.

Series [3] can be described thus: pH-rate aqueous kinetic analysis of fragmentation (HPLC). The format is physicochemical. The conditions noted are these: for kobs of elimination at pH 6: pH 6, 37 °C; for kobs of elimination at pH 6 / kobs of elimination at pH 3: citrate-phosphate buffer; for kobs of elimination at pH 3: pH 3, 37 °C. As to the method: pH-rate analysis was performed by adaption of the PenG assay. To obtain deprotected para-aminobenzyl ketol species, 2-phenylacetyl protected ketol was dissolved in PBS with 33% DMF to a concentration of 3.3 mM. Then 20 µl of a stock solution of PenG was added to 600 µl of this stock and incubated for 20 min at 37 °C, after which 20 µl of a 100 mM stock of internal standard in DMSO was added. Reactions were then set up immediately. For a reaction, 10 µl of the aminobenzyl ketol/standard stock was added to 190 µl of citrate–phosphate buffer at the specified pH to obtain an aqueous solution containing 1.8% DMSO. Test samples were incubated at 37 °C with shaking. At the recorded time points, 20 µl aliquots of the reactions were analysed by HPLC (254 nm, ThermoFisher U3000). HPLC conditions: column Phenomenex Kinetex C18 5 µm, 50 × 4.6 mm, 100 Å; solvent system A = H2O + 0.1% formic acid, B = acetonitrile + 0.1% formic acid; flow, 1 ml min^−1. Gradient for assay with PAB-PhQ 7: t = 0–1 min 0% B, t = 1–10 min 0–100% B, t = 10–11 min 0% B. Gradient for assay with PAB-BL 10 and PAB-DN 18: t = 0–1 min 0% B, t = 1–10 min 0–40% B, t = 10–16 min 40–50% B, t = 16.1 min 100% B, t = 16.1–18 min 100% B, t = 18–20 min 0% B. Values described represent peak area (mAU × min) divided by peak area of internal standard. Where necessary, peaks were deconvoluted using Origin fitting software. Recorded values are averages of three independent reactions and error bars display standard errors of the mean. Values were fitted using GraphPad Prism software. Rate and half-life measurements were calculated based on consumption of the para-aminobenzyl ketol species.

A short description of series [4]: In vitro redox-cycling phenol red/horseradish peroxidase reporter assay. The conditions noted are these: phenol red/HRP with DTT, up to 25 μM. As to the method:
The in vitro redox-cycling capability of compounds was assessed by phenol red/horseradish peroxidase (HRP) assay by adaption of a previously described protocol. Briefly, stocks were prepared as follows: (1) DTT to a concentration of […] in PBS pH 7.4 buffer; (2) compound stocks in PBS pH 7.4 buffer to 3× the desired concentration by 1,000× dilution of DMSO stocks; (3) a stock of phenol red/HRP detection reagent containing 300 µg ml^−1 phenol red and 180 µg ml^−1 HRP enzyme in PBS pH 7.4 buffer; (4) a stock of 1 M NaOH in water; (5) a stock of 100 µM H2O2 in PBS prepared by addition of a 30% solution of H2O2 in water into 1,000 µl of PBS. Into each well of a 96-well clear flat-bottomed plate was then added 40 µl of compound stock in PBS followed by 40 µl of DTT stock, followed immediately by 40 µl of phenol red/HRP reagent. A positive control with 100 µM H2O2 added in place of compound was included. The plate was incubated in the dark at room temperature for 15 min. Following this, 20 µl of 1 M NaOH was added to each well to terminate the reaction. Absorbance was immediately measured at 610 nm (MiniMax i3x Imager, Molecular Devices). Absorbance of treated wells was normalized to control wells treated with PBS only (zero redox cycling).
(In general: Reporter assays use an easily measured gene product as a stand-in for the process of interest.)

Series [5] deals with T1, recombinant human 5-LO (Homo sapiens, UniProt P09917).
T1 construct: made in house; host or cells: Escherichia coli BL21
T1 sequence (P09917 1-674): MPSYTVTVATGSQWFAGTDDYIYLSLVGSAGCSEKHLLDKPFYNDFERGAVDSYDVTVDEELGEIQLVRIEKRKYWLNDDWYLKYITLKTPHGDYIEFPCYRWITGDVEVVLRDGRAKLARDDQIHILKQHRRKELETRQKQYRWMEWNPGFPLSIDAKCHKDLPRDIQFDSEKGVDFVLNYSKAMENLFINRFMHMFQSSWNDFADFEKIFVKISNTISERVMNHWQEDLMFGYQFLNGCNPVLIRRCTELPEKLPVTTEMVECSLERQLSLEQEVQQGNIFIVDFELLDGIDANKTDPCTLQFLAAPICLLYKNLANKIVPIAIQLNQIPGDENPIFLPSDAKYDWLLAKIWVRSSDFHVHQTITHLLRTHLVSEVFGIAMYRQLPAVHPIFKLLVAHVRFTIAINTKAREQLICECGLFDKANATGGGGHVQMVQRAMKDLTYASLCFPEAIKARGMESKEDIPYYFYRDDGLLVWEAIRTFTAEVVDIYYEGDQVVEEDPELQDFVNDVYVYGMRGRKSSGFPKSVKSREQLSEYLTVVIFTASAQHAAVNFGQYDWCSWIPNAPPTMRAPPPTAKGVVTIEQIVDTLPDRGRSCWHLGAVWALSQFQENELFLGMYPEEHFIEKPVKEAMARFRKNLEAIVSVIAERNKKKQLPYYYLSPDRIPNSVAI
The experiment in a line: Cell-free activity assay for recombinant human 5-LO. The class given is biochemical. As to the method:
Escherichia coli (BL21) was transformed with pT3-5-LO plasmid, and recombinant 5-LO protein was expressed at 30 °C as described. Cells were lysed in 50 mM triethanolamine/HCl pH 8.0, 5 mM EDTA, 1 mM phenylmethanesulfonyl fluoride, soybean trypsin inhibitor (60 μg ml^−1) and lysozyme (1 mg ml^−1), homogenized by sonication (3 × 15 s) and centrifuged at 40,000g for 20 min at 4 °C. The 40,000g supernatant (S40) was applied to an ATP–agarose column to partially purify 5-LO as described. Aliquots of semipurified 5-LO (0.5 μg) were diluted with 1 ml ice-cold PBS containing 1 mM EDTA. Samples were preincubated with the test compound or vehicle (0.1% DMSO) with or without 1 mM DTT, as indicated. After 10 min at 4 °C, samples were prewarmed for 30 s at 37 °C, and 2 mM CaCl2 plus 20 μM arachidonic acid was added to start the formation of 5-LO products. After 10 min, the reaction was stopped by addition of 1 volume of ice-cold methanol, and the formed 5-LO products were analysed by reverse-phase HPLC as described. 5-LO products include the all-trans isomers of LTB4 (trLTB4 isomers) and 5(S)-hydroperoxy-6-trans-8,11,14-cis-eicosatetraenoic acid and its corresponding alcohol 5(S)-hydroxy-6-trans-8,11,14-cis-eicosatetraenoic acid.

Series [6] deals with ovine blood. The experiment in a line: Methaemoglobin analysis in ovine blood. Details: species or system sheep. The conditions noted are these: in vitro ovine blood model, 1 h incubation. As to the method: Defibrinated Oxoid sheep’s blood (ThermoScientific) was diluted to a 5% v/v suspension in PBS pH 7.4. In a 96-well microtitre plate, 150 µl of blood suspension was added to 50 µl of serially diluted compound in PBS containing a 4× stock of each compound of interest. Serial dilution of compounds from DMSO stocks into PBS was performed to achieve an in-plate DMSO concentration of 0.1%. PBS buffer alone was used as a negative control. The plate was incubated for the specified time at 37 °C. The plate was then centrifuged at 3,500 r.p.m. for 5 min. The supernatant was removed and cells lysed by resuspension in 100 µl of a solution of Triton-X-100 (1%) in PBS. Following this, 80 µl of lysed cell contents were transferred to a second microtitre plate for ultraviolet measurement. Ultraviolet absorbance was measured immediately at 630 nm (MiniMax i3x Imager, Molecular Devices). Methaemoglobin increase was determined by A630−A6300/A6300×100 , where A630 is the absorbance of the test well at 630 nm, and A6300 is the absorbance of the negative control at 630 nm.

For series [7], the system named is AML cell line MOLM-13. The experiment in a line: Viability assay with small-molecule prodrugs, MOLM-13. The class given is cell-based. The following applies: 5 µM, 24 h. As to the method: For assays assessing cytotoxicity of β-lapachone versus small-molecule prodrugs, antibodies and ADCs, suspension cells were plated into 24-well plates at a density of 2.5 × 10^5 cells ml^−1 in 240 µl. Stocks of ADC or antibody in PBS were normalized to 12.5 µM. Serial dilutions of compound were made up in PBS. Then, 60 µl of each stock of either PBS or compound in PBS was added to the cells to achieve the desired final concentration. After the specified incubation time, toxicity was assessed by counting of live cells using the trypan blue exclusion method with a Countess II Automated Cell Counter (ThermoFisher Scientific) according to the manufacturer’s instructions. Cell viability was determined by dividing the average live cell number of treated wells by the average live cell number for control wells treated with PBS only. IC50 values were calculated using GraphPad Prism software. Note: for the assay performed over 96 h, 5% human serum was added to media instead of 10% fetal bovine serum, to limit non-specific antibody internalisation. This had little effect on ADC toxicity.

Where [8] appears, read: 25 °C, moderately acidic methanolic solution.

Regarding 2-phenylacetyl-PAB-PhQ [Compound 21], in series [1], the “kobs, formation of PhQ 4 following addition of penicillin G amidase to 21” value is given as 1.15 ± 0.66 × 10^–5 s^–1. For the same compound, the “stability without added enzyme” value in series [1] (no penicillin G amidase) is listed as “stable”.
Regarding `Nc1ccc(CC2(O)C(=O)c3ccccc3-c3ccccc32)cc1` (stereo not drawn) [Compound 7, para-aminobenzyl phenanthrene-ketol], in series [2] (setting [8]), the “kobs, rate of consumption of 7” value is reported as 6.18 ± 0.12 × 10^–5 s^–1; the “kobs, rate of formation of product 4 from 7” value is 6.55 ± 0.22 × 10^–5 s^–1; the “time to complete release of 4 from 7” value is recorded as not above 20 h. The “completeness of release of 4 from 7” value in series [2] (basic conditions) is “not complete after 40 h”. In series [2] (basic conditions, MeOD with triethylamine), the “kobs, appearance of 4 from 7” value is reported as 1.16 ± 0.18 × 10^–6 s^–1. For the same compound, the “kobs, elimination of 7” value in series [1] (7 generated enzymatically from 21) is on record as 9.72 ± 2.88 × 10^–6 s^–1. Moreover, the “pH at which elimination rate peaks” value in series [3] (37 °C) was 5–6. For the same compound, the “kobs of elimination at pH 6” value in series [3] is 1.7 ± 0.3 × 10^–5 s^–1.
As to `CC1(C)CCC2=C(O1)c1ccccc1C(O)(Cc1ccc(N)cc1)C2=O` (stereo not drawn) [Compound 10], the “pH at which elimination rate peaks” value in series [3] (37 °C) came to 3. Moreover, in series [3], the “kobs of elimination at pH 3” value is 1.1 ± 0.1 × 10^–5 s^–1 and the “kobs of elimination at pH 6” value is listed as 2.1 ± 0.8 × 10^–7 s^–1. The “elimination resulting in formation of 1” value in series [3] (pH ≥6, within 72 h, 37 °C) is “Negligible”.
`CC1OC2=C(C(=O)C(O)(Cc3ccc(N)cc3)c3ccccc32)C1(C)C` (stereo not drawn) [Compound 18]: in series [3], the “kobs of elimination at pH 3” value is 9.1 ± 0.2 × 10^–6 s^–1 and the “kobs of elimination at pH 6” value is 7.4 ± 1.1 × 10^–7 s^–1.
Take `CC1(C)CCc2c3c(c4ccccc4c2O1)OCCO3` [Compound 25]: the “in vitro redox activity” value in series [4] is “no measurable redox activity”. The IC50 amounted to 11.5 ± 2.2 µM in series [5] (with DTT (1 mM), read-out: IC50, 5-LO inhibition with DTT) and 11.3 ± 1.1 µM in series [5] (without DTT, read-out: IC50, 5-LO inhibition without DTT). Also, in series [6], the methaemoglobin formation result is given as “did not occur”.
In the case of `CC(=O)Oc1c2c(c3ccccc3c1OC(C)=O)OC(C)(C)CC2` [Compound 29], the “toxicity to MOLM-13 at 5 µM” value in series [7] is “complete cell death”.

One may read the IC50 as the concentration at which inhibition is half-maximal.
